Experimental data reported in patent US9980982B2, “HE4 based therapy for malignant disease” (Women & Infants Hospital of Rhode Island, priority 2011, dated 2018).
Oligonucleotides are written 5' to 3', each unit as a sugar letter and its base; * is a phosphorothioate linkage, no mark a phosphodiester; rarer units and linkages stand in square brackets, end groups in braces. Plain capitals give the bases only. Starred links: 1 amine or outer side, 2 acyl side, 3 side chain; linkers in the order of their positions; H or OH if unused. Positions of bridges follow the written chain, without caps; N, C: chain ends. Non-standard residues stand in square brackets, D forms with d. Residues, ends and D or L forms follow the SMILES beside them. Chains are numbered I, II in the order given. Actinocin(9to1) = Cc1c2oc3c(C)ccc(C(=O)[*:1])c3nc-2c(C(=O)[*:2])c(N)c1=O; NMeV = CN[C@H](C(=O)O)C(C)C; d = 2'-deoxy (DNA); Sar = CNCC(=O)O

How the values were obtained:
[1] = system: HE4; test: HE4 levels in SKOV-3 cell lysates and media by sandwich ELISA; type: cell-based, Human; conditions: for effect on HE4 levels in media or cell-lysate of SKOV-3 cells: growth factors and cytokines, 6 hours; for effect on HE4 levels in SKOV-3: cytotoxic agents, 24 hrs, serum free DMEM, versus untreated controls
Protocol: (§1) Various agents were examined by RT-PCR or by a sandwich ELISA. […] HE4 levels in cell lysates and media were evaluated by a sandwich ELISA.
Cells were grown for 24 h in 100 mm cell culture dishes (Corning, New York, N.Y.), supernatant collected and lysates of washed and scraped cells prepared as described previously (Lange T S et al., 2007Chem Biol Drug Design, 70:302-10). Total protein of lysates was quantitated (BioRad protein estimation kit, Hercules, Calif.), and HE4 levels were determined using the HE4 EIA assay (Fujirebio Diagnostics, Malvern, Pa.), a solid-phase, non-competitive immunoassay using two mouse monoclonal antibodies, directed against two epitopes in the C-WFDC domain. Calibration curves were used to measure HE4 concentrations in both cell lysates and culture media allowing for the calculation of production and secretion of HE4 in pmol/g total cellular protein.
FIG. 15 is a bar chart showing that treatment with growth factors and cytokines affect the HE4 levels in ovarian cancer cells. SKOV-3 cells (1 million each) were seeded in 100 mm dishes and incubated overnight. The cells were treated with an array of factors (IL-6, Insulin, TNFa, EGF) and incubated for another 6 hours. The media was collected and cells were lysed using the cell lysis buffer. The HE4 content in the media or in the cell-lysate was examined by a HE4 sandwich ELISA kit.

[2] = system: HE4 mRNA; test: HE4 mRNA expression in SKOV-3 cells by RT-PCR; type: cell-based, Human; conditions: stimulation in serum free DMEM (TNF 10 nM, Insulin 100 nM, EGF 10 nM, IL-6 10 nM)
Protocol: as §1
Total RNA isolation from cells was carried out using TRIzol and Reverse transcription on 3 μg RNA using SuperScript III transcriptase according to the manufacturers protocol (Invitrogen, Carlsbad, Calif.) followed by 30 cycles of PCR using the following primer pairs: HE4 sense, 5′-AGG AGC AGA GAA GAC TGG-3′ (SEQ ID NO: 27); HE4 antisense, 5′-TTA TCA TTG GGC AGA GAG-3′ (SEQ ID NO: 28); GAPDH sense, 5′-AAT CCC ATC ACC ATC TTC C-3′ (SEQ ID NO: 29); GAPDH antisense, 5′-GTCCTTCCACGATACCAAAG-3′ (SEQ ID NO: 30). Cycle conditions: 94° C./1 min; 55° C./2 min, 72° C./2 min. PCR products were separated on 2% agarose gels containing 0.4 mg/ml of ethidium bromide.

[3] = system: HE4 overexpressing SKOV-3 clones HE4C1, -C3, -C7; test: MTS cell viability assay, HE4 overexpressing SKOV-3 clones; type: cell-based, Human; conditions: 24 h; for viability at 20 µM: Homo sapiens, SK-OV-3, 24 h, 20 μM doxorubicin, untreated = 100%
Protocol: An HE4 overexpressing vector for stable expression was engineered by inserting a coding sequence of human WAP four-disulfide core domain 2 (WFDC2) cDNA into a multiple cloning site of an eukaryotic expression vector, pCMV6-entry (Origene, Rockville, Md.). Transfection of the constructs in SKOV-3 cells was performed using Lipofectamine 2000 (Invitrogen, Carlsbad, Calif.) according to the manufacturer's instructions. Stably transfected cells were selected by resistance to G-418 (500 μg/ml) (Research Products International, Mount Prospect, Ill.), applied 48 h after transfection and continued during cell culture. G-418 resistant cells were resuspended (density 5 cells/ml) in complete medium/G-418 and seeded as 200 μl/well on a 96 well cell culture plate (Corning, New York, N.Y.). Cells growing from single colonies (cloned; stable transfection) were isolated.
(§2) Cell growth and viability of cell lines (complete medium, 24 h incubation) was determined by the CellTiter 96® AQueous One Solution Assay (Promega Corp, Madison, Wis.) following the manufacturer's recommendations with modifications (Lange T S et al., 2008 PLOS One, 3(5):e2303). Experiments are expressed as the mean of triplicate determinations (X±SD) of a representative experiment in OD (cell growth) or % of absorbance by drug-treated versus untreated cells [=100%] (cell viability). Cisplatin (CDDP), paclitaxel, doxorubicin and camptothecin (CPT) were purchased from (Sigma Aldrich, St. Louis, Mo.).
(§3) To analyze the potential biological relevance of elevated HE4 production for ovarian cancer cells the efficacy of commonly used anticancer drugs was examined in a viability assay (FIG. 5). SKOV-3 clones or parental cells were treated with cisplatin, paclitaxel, doxorubicin, or camptothecin for 24 h in various concentrations as indicated and the cytotoxicity evaluated.

[4] = system: ovarian cancer (SKOV-3) cells xenograft; test: Antisense HE4 oligos in ovarian cancer (SKOV-3) xenografted animals; type: in vivo, nude mice; conditions: 7 mg/kg bwt, IP, 5 days/week; for effect on tumor progression / tumor burden: within 28 days, versus scrambled, sense oligos and vehicle
Protocol: Left: Effect of treatment of antisense HE4 oligos (“HE4 antisense 1” corresponds to SEQ ID NO:2 and “HE4 antisense 2” corresponds to SEQ ID NO:4; red and violet, respectively), sense HE4 oligos (green), vehicle, and scrambled sequences (7 mg/kg bwt, IP) 5 days/week on the tumor size in animals xenografted with ovarian cancer (SKOV-3) cells. Right: the weight of the animals treated with oligos progressed as the day progressed, and no toxicity was observed.
HE4 overexpression promoted ovarian cancer burden in animals (FIG. 24), and caused strong chemoresistance against cisplatin in animals (FIG. 26). Thus, a set of antisense oligos were designed to knockdown the expression levels of HE4 in animals xenografted with ovarian cancer (SKOV-3) cells. Treatment at 5 days/week with antisense HE4 phosphorothio oligos suppressed the tumor progression in animals compared to scrambled or sense HE4 oligos and vehicle treated control within 28 days of the treatment.

[5] = system: SKOV-3 cells; test: MTS cell viability assay, parental/wild-type SKOV-3 cells; type: cell-based, Human; conditions: Homo sapiens, SK-OV-3; wild-type SKOV-3; 20 μM doxorubicin, 24 h; untreated = 100%
Protocol: as §2, §3

EGF: epidermal growth factor (NSDSECPLSHDGYCLHDGVCMYIEALDKYACNCVVGYIGERCQYRDLKWWELR; UniProt P01133 971-1023, looked up)
effect on HE4 levels in media or cell-lysate of SKOV-3 cells [1]: elevate HE4 levels | effect on mRNA expression of HE4 in SKOV-3 cells [2]: did not affect mRNA expression of HE4

CC[C@@]1(O)C(=O)OCc2c1cc1n(c2=O)Cc2cc3ccccc3nc2-1 [camptothecin]
maximum difference in viability between wild-type cells and HE4C1, -3, -7 ([3]; camptothecin, at 1.2 μM): ≤ 21%

C=C1/C(=C\C=C2/CCC[C@]3(C)[C@@H]([C@H](C)CCCC(C)(C)O)CC[C@@H]23)C[C@@H](O)C[C@@H]1O [Calcitriol]
effect on HE4 levels in SKOV-3 [1]: upregulated HE4 expression

5′ G*A*C*A*C*C*T*T*C*C*C*A*C*A*G*C*C*A*T*T*G 3′ [SEQ ID NO:2]
toxicity in animals (body weight) [4]: did not cause any toxicity | effect on tumor progression / tumor burden ([4]; listed as HE4 antisense 1): suppressed the progression of ovarian tumor growth

5′ G*A*C*A*C*C*T*T*C*C*C*A*C*A*G*C*C*A*T*T 3′ (DNA dG*dA*dC*dA*dC*dC*dT*dT*dC*dC*dC*dA*dC*dA*dG*dC*dC*dA*dT*dT; antisense) [SEQ ID NO:1]
effect on tumor progression / tumor burden [4]: showed tumor inhibitory activity

COc1cc2ncnc(Nc3ccc(F)c(Cl)c3)c2cc1OCCCN1CCOCC1 [Iressa]
effect on HE4 levels in SKOV-3 [1]: suppressed HE4 levels

Cc1c2oc3c(C)ccc(C(=O)N[C@@H]4C(=O)N[C@H](C(C)C)C(=O)N5CCC[C@H]5C(=O)N(C)CC(=O)N(C)[C@@H](C(C)C)C(=O)O[C@@H]4C)c3nc-2c(C(=O)N[C@@H]2C(=O)N[C@H](C(C)C)C(=O)N3CCC[C@H]3C(=O)N(C)CC(=O)N(C)[C@@H](C(C)C)C(=O)O[C@@H]2C)c(N)c1=O [Actinomycin-D] (I: T[dV]P[Sar][NMeV] / II: T[dV]P[Sar][NMeV]; ester I:1-I:C, II:1-II:C; linker I:N-II:N via Actinocin(9to1))
effect on HE4 levels in SKOV-3 [1]: suppressed HE4 levels

Tunicamycin
effect on HE4 levels in SKOV-3 [1]: suppressed HE4 levels

COc1cccc2c1C(=O)c1c(O)c3c(c(O)c1C2=O)C[C@@](O)(C(=O)CO)C[C@@H]3O[C@H]1C[C@H](N)[C@H](O)[C@H](C)O1 [doxorubicin]
viability at 20 µM [5]: 58% | viability at 20 µM ([3]; HE4C1): 70% | viability at 20 µM ([3]; HE4C3): 84% | viability at 20 µM ([3]; HE4C7): 91%

5′ A*C*A*C*C*T*T*C*C*C*A*C*A*G*C*C*A*T*T 3′ (DNA ACACCTTCCCACAGCCATT; DNA, all phosphorothioate, methylation of C not given here) [SEQ ID NO:5]
effect on tumor progression / tumor burden [4]: showed tumor inhibitory activity

IL-6: cytokine
effect on HE4 levels in media or cell-lysate of SKOV-3 cells [1]: suppresses the HE4 levels | effect on mRNA expression of HE4 in SKOV-3 cells [2]: did not affect mRNA expression of HE4

5′ A*C*A*C*C*T*T*C*C*C*A*C*A*G*C*C*A*T*T*G 3′ [SEQ ID NO:4]
toxicity in animals (body weight) [4]: did not cause any toxicity | effect on tumor progression / tumor burden [4]: strong reduction in tumor burden | effect on tumor progression / tumor burden ([4]; listed as HE4 antisense 2): suppressed the progression of ovarian tumor growth

Insulin: growth factor
effect on HE4 levels in media or cell-lysate of SKOV-3 cells [1]: elevate HE4 levels | effect on mRNA expression of HE4 in SKOV-3 cells [2]: did not affect mRNA expression of HE4

TNF-a
effect on HE4 levels in media or cell-lysate of SKOV-3 cells [1]: does not alter HE4 levels | effect on mRNA expression of HE4 in SKOV-3 cells [2]: did not affect mRNA expression of HE4

5′ G*A*C*A*C*C*T*T*C*C*C*A*C*A*G*C*C*A*T 3′ (DNA GACACCTTCCCACAGCCAT; DNA, all phosphorothioate, methylation of C not given here) [SEQ ID NO:3]
effect on tumor progression / tumor burden [4]: showed tumor inhibitory activity
